From patent US6680326B2, “Polycyclic compounds” (Hoffmann-La Roche Inc., priority 2001, dated 2004)
Converted amounts (≈) assume the structure as drawn.

The compounds below were run on HCT116 cell line (colorectal cancer) (assay: Anti-proliferative activity assay (WST-8, 4 days)). Conditions: Homo sapiens, HCT-116, 96 h; in vitro growth of HCT116 cells, 4 days incubation, WST-8 readout.
Format: cell-based
Protocol: A single suspension of tumor cells was inoculated to the serially diluted 96-well microtestplate. Then the testplate was incubated in the 5% CO2 ambience at 37° C. for 4 days (2-3×10^3 cells/well). The degree of cell growth in a monolayer was measured by using WST-8 (Dojindo, Japan). IC50 values of the polycyclic compounds concerned against tumor cells were calculated as the concentration of drug yielding 50% OD of the control growth. The IC50 value measures the drug concentration for 50% inhibition of the growth of tumor cells in vitro as compared to the control.
The anti-tumor activity of polycyclic compounds of the formula [I] against in vitro growth of HCT116 cell line (colorectal cancer) is summarized in Table 1.

Compound | IC50
CN(C)CCNc1nc2cc(O)ccc2c2c1C(=O)c1cnccc1-2 [Example 41, 6-(2-dimethylamino-ethylamino)-3-hydroxy-5,9-diaza-benzo[c]fluoren-7-one] | 0.35 ng/mL (≈ 0.00105 µM)
Cc1c(O)ccc2c3c(c(NCCN(C)C)nc12)C(=O)c1ccncc1-3 [Example 45, 6-(2-dimethylamino-ethylamino)-3-hydroxy-4-methyl-5,10-diaza-benzo[c]fluoren-7-one] | 3.9 ng/mL (≈ 0.0112 µM)
CN(C)CCNc1nc2cc(O)ccc2c2c1C(=O)c1ccccc1-2 [Reference compound, 6-(2-dimethylamino-ethylamino)-3-hydroxy-7H-indeno[2,1-c]quinolin-7-one, reference compound] | 12 ng/mL (≈ 0.036 µM)

Second part, the compound after the results:

IC50 | Compound
2.2 ng/mL (≈ 0.00631 µM) | Cc1c(O)ccc2c3c(c(NCCN(C)C)nc12)C(=O)c1cnccc1-3 [Example 46, 6-(2-dimethylamino-ethylamino)-3-hydroxy-4-methyl-5,9-diaza-benzo[c]fluoren-7-one]
3.9 ng/mL (≈ 0.0112 µM) | Cc1cc2c(cn1)-c1c(c(NCCN(C)C)nc3cc(O)ccc13)C2=O [Example 47, 6-(2-dimethylamino-ethylamino)-3-hydroxy-9-methyl-5,10-diaza-benzo[c]fluoren-7-one]
